Measurements as given in BindingDB's records for doi:10.1021/jm00144a035 (1982).

Biological target: Choline O-acetyltransferase (squid)
Assay: Inhibition of choline acetyltransferase isolated from squid head ganglia

Nc1c(S(=O)(=O)O)cc(Nc2ccc(Nc3nc(Nc4ccc(S(=O)(=O)O)cc4)nc(=O)[nH]3)c(S(=O)(=O)O)c2)c2c1C(=O)c1ccccc1C2=O [1-Amino-4-{4-[4-hydroxy-6-(4-sulfo-phenylamino)-[1,3,5]triazin-2-ylamino]-3-sulfo-phenylamino}-9,10-dioxo-9,10-dihydro-anthracene-2-sulfonic acid]
Ki: 1800 nM

CSSCCNC(=O)CCNC(=O)C(O)C(C)(C)COP(=O)(O)OP(=O)(O)OC[C@H]1O[C@@H](n2cnc3c(N)ncnc32)[C@H](O)[C@@H]1OP(=O)(O)O (some centres not stated) [Methyldisulfanyl analogue of coenzyme A]
Ki: 2300 nM
